Data taken from ChEMBL document CHEMBL3797049, “Development of a competitive binding assay for the Burkholderia cenocepacia lectin BC2L-A and structure activity relationship of natural and synthetic inhibitors” (Medchemcomm, 2016).
The source made the active and inactive calls. No cut-off for these calls is given here.

Key:
[1] = target: T1, Lectin (Burkholderia cenocepacia (strain ATCC BAA-245 / DSM 16553 / LMG 16656/ NCTC 13227 / J2315 / CF5610) (Burkholderia cepacia (strain J2315)), UniProt B4EH87); test: Displacement of N-(fluorescein-5-yl)-N'-(alpha-D-mannopyranosyloxyethyl)-thiocarbamide from Burkholderia cenocepacia J2315 BC2L-A expressed in Escherichia coli BL21 (DE3) cells incubated for 3 to 4 hrs by fluorescence polarization assay
T1 sequence (B4EH87 whole entry): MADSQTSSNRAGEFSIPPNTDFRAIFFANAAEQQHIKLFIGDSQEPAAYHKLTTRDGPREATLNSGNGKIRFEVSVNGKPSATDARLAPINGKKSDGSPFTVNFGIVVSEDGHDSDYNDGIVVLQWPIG

[2] = target: T2, Lectin (Burkholderia cenocepacia (strain ATCC BAA-245 / DSM 16553 / LMG 16656/ NCTC 13227 / J2315 / CF5610) (Burkholderia cepacia (strain J2315))) (UniProt B4EH87); test: Displacement of N-(fluorescein-5-yl)-N'-(alpha-D-mannopyranosyloxyethyl)-thiocarbamide from Burkholderia cenocepacia J2315 BC2L-A expressed in Escherichia coli BL21 (DE3) cells up to 666 uM incubated for 3 to 4 hrs by fluorescence polarization assay relative to control
T2 sequence (whole entry): T1 sequence (B4EH87 whole entry)

[3] = Displacement of N-(fluorescein-5-yl)-N'-(alpha-L-fucopyranosyl-O-ethyl)-thiocarbamide from Pseudomonas aeruginosa LecB expressed in Escherichia coli BL21 (DE3) cells up to 666 uM incubated for 6 hrs by fluorescence polarization assay
[4] = target: T1, Lectin (Burkholderia cenocepacia (strain ATCC BAA-245 / DSM 16553 / LMG 16656/ NCTC 13227 / J2315 / CF5610) (Burkholderia cepacia (strain J2315)), UniProt B4EH87); test: Binding affinity to Burkholderia cenocepacia J2315 BC2L-A expressed in Escherichia coli BL21 (DE3) cells
[5] = target: T1, Lectin (Burkholderia cenocepacia (strain ATCC BAA-245 / DSM 16553 / LMG 16656/ NCTC 13227 / J2315 / CF5610) (Burkholderia cepacia (strain J2315)), UniProt B4EH87); test: Binding affinity to Burkholderia cenocepacia J2315 BC2L-A expressed in Escherichia coli BL21 (DE3) cells by isothermal titration calorimetry
[6] = target: T1, Lectin (Burkholderia cenocepacia (strain ATCC BAA-245 / DSM 16553 / LMG 16656/ NCTC 13227 / J2315 / CF5610) (Burkholderia cepacia (strain J2315)), UniProt B4EH87); test: Binding affinity to Burkholderia cenocepacia J2315 BC2L-A expressed in Escherichia coli BL21 (DE3) cells by microcalorimetry

SMILES	IC50 [1] [µM]	inhibition [2]	other results
CO[C@H]1O[C@H]([C@@H](O)CNC(C)=O)[C@@H](O)[C@H](O)[C@@H]1O	116		
CO[C@H]1O[C@H](CN)[C@@H](O)[C@H](O)[C@@H]1O		inactive	
Cc1cc(=O)oc2cc(O[C@@H]3O[C@H](CO)[C@@H](O)[C@H](O)[C@@H]3O)ccc12	7.4		
CO[C@H]1O[C@H](CI)[C@@H](O)[C@H](O)[C@@H]1O		inactive	
C=CCO[C@H]1O[C@H](CO)[C@@H](OC)[C@H](O)[C@@H]1O		inactive	inhibition [3]: inactive
C=CCO[C@H]1O[C@H](CO)[C@@H](O)[C@H](O)[C@@H]1O	13.6		
C[C@H](O)[C@@H](O)[C@@H](O)[C@H](O)C=O [L-FUCOSE]	498		IC50 [4]: 2300 µM
OC[C@H]1OC(O)[C@@H](F)[C@@H](O)[C@@H]1O (stereo not given in full)		inactive	inhibition [3]: inactive
OC[C@H]1OC(O)[C@@H](O)[C@@H](F)[C@@H]1O (stereo not given in full)		inactive	inhibition [3]: inactive
C[C@@H]1O[C@H](C)[C@@H](O)[C@H](O)[C@@H]1O		inactive	
CO[C@H]1O[C@@H](C)[C@@H](O)[C@@H](O)[C@@H]1O		inactive	
C=CCO[C@H]1O[C@H](CO)[C@@H](O)[C@H](OC)[C@@H]1O		56%	inhibition [3]: inactive
CO[C@H]1O[C@H]([C@@H](O)CNC(=O)/C=C/c2ccccc2)[C@@H](O)[C@H](O)[C@@H]1O	64		
OC[C@H]1OC[C@@H](O)[C@@H](O)[C@@H]1O	2.9		
CO[C@H]1O[C@H]([C@@H](O)CNC(=O)c2ccccc2)[C@@H](O)[C@H](O)[C@@H]1O	104		
C[C@@H]1OC[C@@H](F)[C@H](O)[C@@H]1O		inactive	inhibition [3]: inactive
CO[C@H]1O[C@H](CCl)[C@@H](O)[C@H](O)[C@@H]1O		inactive	
CO[C@H]1O[C@H]([C@@H](O)CNS(=O)(=O)c2c(C)cc(C)cc2C)[C@@H](O)[C@H](O)[C@@H]1O	13.8		
CO[C@H]1O[C@H](CBr)[C@@H](O)[C@H](O)[C@@H]1O		inactive	
CO[C@H]1O[C@H]([C@H](O)CNC(=O)c2ccccc2)[C@@H](O)[C@H](O)[C@@H]1O		inactive	
CO[C@H]1OC(C(O)CO)C(O)C(O)C1O (stereo not given in full)			Kd [5]: 54 µM
CO[C@H]1O[C@H](CO)[C@@H](O)[C@H](O)[C@@H]1O	7		Kd [6]: 2.7 µM
CO[C@H]1O[C@H]([C@@H](O)CNS(=O)(=O)c2ccc(C)cc2)[C@@H](O)[C@H](O)[C@@H]1O	19.1		
C[C@@H]1O[C@H](CO)[C@@H](O)[C@H](O)[C@@H]1O	13		
CO[C@H]1O[C@H]([C@H](O)CNC(=O)/C=C/c2ccccc2)[C@@H](O)[C@H](O)[C@@H]1O		inactive	
Cc1cc(=O)oc2cc(O[C@H]3O[C@H](CO)[C@@H](O)[C@H](O)[C@@H]3O)ccc12	14.5		
C[C@@H]1OC[C@@H](O)[C@H](O)[C@@H]1O		inactive	
CO[C@@H]1O[C@@H](C)[C@@H](O)[C@@H](O)[C@@H]1O		inactive	
